We go through 13 compounds from US8128802B2, “Analysis apparatus and analysis method for glycosylated hemoglobin” (OJI Paper Co., Ltd, priority 2005, dated 2012).

Holding throughout (format): biochemical
The test system of experiment [1] is fructosyl amino acid oxidase. Put plainly: Substrate specificity of fructosyl amino acid oxidase-immobilized column (Example 3). The note with it: buffers pH 8.0; for Relative response value: normalized to 100 for the response to fructosyl glycine, 37° C., dialysis module. The source says:
The buffer was removed as far as possible. […] The support immobilized enzyme was packed into the column (internal diameter: 3.5 mm, length: 30 mm) to give the fructosyl amino acid oxidase-immobilized column. In the assay apparatus shown in FIG. 2, the flow type calorimeter (16), the protease-immobilized column (14) and the first immobilized enzyme column (17) were not disposed, and the electrode for glucose was placed in the electrode for hydrogen peroxide (18), the fructosyl amino acid oxidase-immobilized column in the second immobilized enzyme column (19), and the electrode for hydrogen peroxide in the electrode for hydrogen peroxide (20). The buffer B was pumped out from the buffer tank (24) using the pump (25), and a 100 μL portion of the sample was injected using the valve (4). […] Since the buffer A was pumped out from the buffer tank (1) by the pump (2), the components with low molecular weight in the sample dialyzed in the dialysis module (27) passed through the electrode for glucose (18), the fructosyl amino acid oxidase-immobilized column (19) and the electrode for hydrogen peroxide (20), and hydrogen peroxide from glucose and fructosyl amino acid in the sample was detected. […] The temperature in the incubator was 37° C. The substrate specificity of fructosyl amino acid oxidase-immobilized column for various fructosyl amino acids, fructosyl peptides, amino acids and sugars was examined using the assay apparatus mentioned in (4) when pH of the buffers was 8.0.

Experiment [2] relates to fructosyl amino acid oxidase. Put plainly: Characteristics of fructosyl amino acid oxidase-immobilized column (Example 5). The following applies: buffer pH 8.0, 37° C. How it is done:
FIG. 1 was the flow type assay apparatus with one flow path. The buffer A was pumped out from the buffer tank (1) using the pump (2), and a 5 μL portion of the sample was injected using the valve (4). The fructosyl amino acid oxidase-immobilized column was placed in the first immobilized enzyme column (17) and the electrode for hydrogen peroxide was placed downstream. The second immobilized enzyme column (19), the second electrode for hydrogen peroxide (20), the protease-immobilized column (14) and the flow type calorimeter (16) were not disposed. The injected sample transferred with the flowing buffer, passed through the mixing coil (15) in the incubator (13), and thus the sample temperature was adjusted and the sample was mixed with the buffer. The sample passed through the fructosyl amino acid oxidase-immobilized column (17) and the electrode for hydrogen peroxide (18), hydrogen peroxide was produced from fructosyl valine in the sample, and the change of the current was detected.
The composition of the buffer for this assay apparatus contained 100 mM phosphoric acid, 50 mM potassium chloride and 1 mM sodium azide, and its pH was 8.0.
The flow rate of the buffer was 1.0 mL/minute, and the temperature in the incubator was 37° C.
Using the assay apparatus 1 mentioned in (3), a 5 μL portion of fructosyl glycine was injected, and the characteristics of the fructosyl amino acid oxidase-immobilized column was examined.
When pH in the buffer was 7.0, 7.5, 8.0, 8.5 or 9.0, the activity in the oxidation of fructosyl glycine was measured.

Experiment [3] deals with fructosyl peptide oxidase. Put plainly: Substrate specificity, pH profile and stability of fructosyl peptide oxidase-immobilized column (Example 1). The following applies: for Relative activity (%) pH 6.0: buffer pH 6.0; for Relative activity (%) pH 6.0 / Relative activity (%) pH 7.0 / Relative activity (%) pH 8.0: normalized to 100 for the response to fructosyl valine at each pH, 30° C.; for Relative activity (%) pH 7.0: buffer pH 7.0; for Relative activity (%) pH 8.0: buffer pH 8.0. Here is the method:
Firebrick powder (150 mg, 30 to 60 meshes) was thoroughly dried, immersed in a 10% solution of γ-aminopropyltriethoxysilane in anhydrous toluene for one hour, then thoroughly washed with anhydrous toluene and dried. The aminosilane-modified support was immersed in a 5% aqueous glutaraldehyde solution for one hour, and then thoroughly washed with distilled water, followed by substitution with 100 mM sodium phosphate buffer (pH 7.0). The buffer was removed as far as possible. A solution ([…]) of fructosyl peptide oxidase (140 units/mL, from Kikkoman Co.) in 100 mM sodium phosphate buffer (pH 7.0) was contacted with the formylated firebrick powder, and then incubated at 0 to 4° C. for one day for the enzyme immobilization. The support immobilized enzyme was packed into a column (internal diameter: 3.5 mm, length: 30 mm) to give the fructosyl peptide oxidase-immobilized column.
The buffer was pumped out from a buffer tank (1) using a pump (2), and 5 μL of a sample was injected using a valve (4). A protease-immobilized column (14), a flow type calorimeter (16), a second immobilized enzyme column (19) and a second electrode for hydrogen peroxide (20) were not placed, and a fructosyl peptide oxidase-immobilized column was placed as a first immobilized enzyme column (17), followed by an electrode for hydrogen peroxide (18) downstream thereof. The injected sample transferred with the flowing buffer, passed through a mixing coil (15) inside an incubator (13), and thus the sample temperature was adjusted and the sample was mixed with the buffer. The sample passed through the fructosyl peptide oxidase-immobilized column (17) and the electrode for hydrogen peroxide (18) to produce hydrogen peroxide from fructosyl valylhistidine in the sample, and then the change of the current was detected.
A composition of the buffer used in this assay apparatus contained 100 mM phosphoric acid, 50 mM potassium chloride and 1 mM sodium azide, and its pH was 7.0.
(§1) The flow rate of the buffer was 1.0 mL/minute, and the temperature in the incubator was 30° C.
Using the assay apparatus described in (3), a 5 μL portion of fructosyl glycine, fructosyl valine or fructosyl valylhistidine was injected, and the characteristics of the fructosyl peptide oxidase-immobilized column was examined.
When pH of the buffer was 6.0, 7.0 or 8.0, the assay results of the activity for the oxidation of fructosyl glycine (FG), fructosyl valine (FV) or fructosyl valylhistidine (FVH) were shown in FIG. 3. For fructosyl glycine the activity was high at pH 8.0, but the activity at pH 6.0 was decreased to about 50% of that at pH 8.0. For fructosyl valine and fructosyl valylhistidine, the activity was high at pH 6.0 and 7.0.
Response values in Table 1 were normalized to 100 for the response to fructosyl valine at each pH.

Experiment [4] relates to fructosyl peptide oxidase. In words: Substrate specificity of fructosyl peptide oxidase-immobilized column (Example 4). The note with it: buffer A pH 7.0; for Relative response value: normalized to 100 for the response to fructosyl valine, 30° C. How it is done: In the same way as described in Example 1 (1), 150 mg of firebrick powder (30 to 60 meshes) was formylated. The solution (200 μL) of fructosyl peptide oxidase (140 units/mL, from Kikkoman Co.) in 100 mM sodium phosphate buffer (pH 7.0) was contacted with the formylated firebrick powder, and then incubated at 0 to 4° C. for one day for the enzyme immobilization.
In the assay apparatus shown in FIG. 1, the protease-immobilized column (14), the flow type calorimeter (16) and the first immobilized enzyme column (17) were not disposed, and the electrode for glucose was placed in the electrode for hydrogen peroxide (18), the fructosyl peptide oxidase-immobilized column in the second immobilized enzyme column (19), and the electrode for hydrogen peroxide in the electrode for hydrogen peroxide (20). The buffer A was pumped out from the buffer tank (1) by the pump (2), and a 5 μL portion of the sample was injected using the valve (4). The injected sample transferred with the flowing buffer A, passed through the mixing coil (15) in the incubator (13), and thus the sample temperature was adjusted and the sample was mixed with the buffer. And then the sample passed through the downstream electrode for glucose (18), fructosyl peptide oxidase-immobilized column (19) and an electrode for hydrogen peroxide (20), hydrogen peroxide was produced from fructosyl valylhistidine in the sample, and the change of the current was detected.
The composition of the buffer A for the assay apparatus contained 100 mM phosphoric acid, 50 mM potassium chloride and 1 mM sodium azide, and its pH was 7.0.
as §1
On fructosyl peptide oxidase-immobilized column, the substrate specificity for various fructosyl amino acids, fructosyl peptides, amino acids and sugars was examined using the assay apparatus mentioned in (4) when pH of the buffer A was 7.0. In the Table 4, the relative values were normalized to 100 for the response to fructosyl valine.

`O=C(O)[C@@H]1CCCN1` [Pro] displayed a Relative response value in experiment [1] of 0.0. For the same compound, the “Relative activity (%)” value in experiment [2] (sample concentration 10 mM) is listed as 2.0%. In addition, in experiment [3], the “Relative activity (%) pH 6.0” value is 0%, the “Relative activity (%) pH 7.0” value is reported as 0% and the “Relative activity (%) pH 8.0” value worked out at 0%. This compound showed a Relative response value in experiment [4] of 0.0.
For `NC(=O)C[C@H](N)C(=O)O` [Asn], the Relative response value in experiment [1] was 0.0. Also, in experiment [2] (sample concentration 10 mM), the “Relative activity (%)” value stood at 0.0%. Further, in experiment [3], the “Relative activity (%) pH 6.0” value amounted to 0%, the “Relative activity (%) pH 7.0” value was determined as 0% and the “Relative activity (%) pH 8.0” value is listed as 0%. In experiment [4], this compound displayed a Relative response value of 0.0.
With `O=C[C@H](O)[C@@H](O)[C@H](O)CO` [Xylose], the Relative response value in experiment [1] came out at 0.0. For the same compound, the “Relative activity (%)” value in experiment [2] (sample concentration 10 mM) turned out to be 0.0%. For the same compound, in experiment [3], the “Relative activity (%) pH 6.0” value is on record as 0%, the “Relative activity (%) pH 7.0” value was 0% and the “Relative activity (%) pH 8.0” value is 0%. In addition, in experiment [4], the Relative response value was found to be 0.0.
As for `CSCC[C@H](N)C(=O)O` [Met], in experiment [1], the “response of fructosyl amino acid oxidase-immobilized column” value is “extremely small responses” and the Relative response value came out at 0.1. Also, the “Relative activity (%)” value in experiment [2] (sample concentration 10 mM) was 8.0%. Besides, in experiment [3], the “Relative activity (%) pH 6.0” value was found to be 0%, the “Relative activity (%) pH 7.0” value is on record as 0% and the “Relative activity (%) pH 8.0” value was found to be 0%. The compound also came in with a Relative response value in experiment [4] of 0.0.
With `NC(=O)CC[C@H](N)C(=O)O` [Gln], in experiment [1], the “response of fructosyl amino acid oxidase-immobilized column” value is given as “extremely small responses” and the Relative response value turned out to be 0.2. In addition, the “Relative activity (%)” value in experiment [2] (sample concentration 10 mM) is 6.0%. In experiment [3], the “Relative activity (%) pH 6.0” value came to 0%, the “Relative activity (%) pH 7.0” value was determined as 0% and the “Relative activity (%) pH 8.0” value is on record as 0%. The compound further displayed a Relative response value in experiment [4] of 0.0.
In experiment [1], `N[C@@H](Cc1c[nH]cn1)C(=O)O` [His] registered a Relative response value of 0.0. For the same compound, the “Relative activity (%)” value in experiment [2] (sample concentration 10 mM) is listed as 0.0%. Moreover, in experiment [3], the “Relative activity (%) pH 6.0” value is 0%, the “Relative activity (%) pH 7.0” value was found to be 0% and the “Relative activity (%) pH 8.0” value turned out to be 0%. This compound returned a Relative response value in experiment [4] of 0.0.
In experiment [1], `N=C(N)NCCC[C@H](N)C(=O)O` [Arg] displayed a Relative response value of 0.0. Besides, in experiment [2] (sample concentration 10 mM), the “Relative activity (%)” value amounted to 1.0%. In addition, in experiment [3], the “Relative activity (%) pH 6.0” value came out at 0%, the “Relative activity (%) pH 7.0” value worked out at 0% and the “Relative activity (%) pH 8.0” value was found to be 0%. Moreover, the Relative response value in experiment [4] is given as 0.0.
The compound `CC(C)C[C@H](N)C(=O)O` [Leu] had a Relative response value in experiment [1] of 0.0. Also, the “Relative activity (%)” value in experiment [2] (sample concentration 10 mM) turned out to be 0.0%. In experiment [3], the “Relative activity (%) pH 6.0” value is 0%, the “Relative activity (%) pH 7.0” value is 0% and the “Relative activity (%) pH 8.0” value was determined as 0%. Also, the Relative response value in experiment [4] is recorded as 0.0.
As to `NCCCC[C@H](N)C(=O)O` [Lys], in experiment [1], the Relative response value was determined as 0.0. Further, the “Relative activity (%)” value in experiment [2] (sample concentration 10 mM) worked out at 41.0%. In experiment [3], the “Relative activity (%) pH 6.0” value is 0%, the “Relative activity (%) pH 7.0” value was 0% and the “Relative activity (%) pH 8.0” value is listed as 0%. The compound further gave a Relative response value in experiment [4] of 0.0.
In turn, `CC(C)[C@H](N)C(=O)O` [Val] showed a Relative response value in experiment [1] of 0.0. Moreover, the “Relative activity (%)” value in experiment [2] (sample concentration 10 mM) came out at 0.0%. Further, in experiment [3], the “Relative activity (%) pH 6.0” value was 0%, the “Relative activity (%) pH 7.0” value was found to be 0% and the “Relative activity (%) pH 8.0” value is listed as 0%. For the same compound, in experiment [4], the Relative response value turned out to be 0.0.
The compound `O=C[C@H](O)[C@@H](O)[C@@H](O)[C@H](O)CO` [Galactose] returned a Relative response value in experiment [1] of 0.0. Besides, in experiment [2] (sample concentration 10 mM), the “Relative activity (%)” value was 0.0%. Also, in experiment [3], the “Relative activity (%) pH 6.0” value amounted to 0%, the “Relative activity (%) pH 7.0” value was found to be 0% and the “Relative activity (%) pH 8.0” value was 0%. In experiment [4], the Relative response value is 0.0.
`C[C@@H](O)[C@H](N)C(=O)O` [Thr] registered a Relative response value in experiment [1] of 0.0. Also, the “Relative activity (%)” value in experiment [2] (sample concentration 10 mM) came out at 2.0%. Further, in experiment [3], the “Relative activity (%) pH 6.0” value was determined as 0%, the “Relative activity (%) pH 7.0” value is on record as 0% and the “Relative activity (%) pH 8.0” value stood at 0%. Further, the Relative response value in experiment [4] was 0.0.
In turn, `O=C(O)[C@H](CCCCNCC(=O)[C@@H](O)[C@H](O)[C@H](O)CO)NCC(=O)[C@@H](O)[C@H](O)[C@H](O)CO` [α, ε-Fructosyl lysine] gave a Relative response value in experiment [1] of 1.1. For the same compound, the “Relative activity (%)” value in experiment [2] (sample concentration 0.1 mM) was 5.0%. Also, the “response of fructosyl peptide oxidase-immobilized column (in words)” value in experiment [3] (at any pH (6.0, 7.0, 8.0)) was “scarcely responded”. For the same compound, in experiment [3], the “Relative activity (%) pH 6.0” value is recorded as 9%, the “Relative activity (%) pH 7.0” value is listed as 10% and the “Relative activity (%) pH 8.0” value worked out at 11%. Further, in experiment [4], the “response of fructosyl peptide oxidase-immobilized column (in words)” value is on record as “scarcely responded” and the Relative response value was determined as 9.9.
